Test system: HepG2 cells
Conditions: normoxia

COc1cccc2c1C(=O)c1c(O)c3c(c(O)c1C2=O)C[C@@](O)(C(=O)CO)C[C@@H]3O[C@H]1C[C@H](N)[C@H](O)[C@H](C)O1 [DOX, Doxorubicin]
minimal concentration that diminished the growth of the treated cells (HepG2): 1 μm
decrease of cell viability (HepG2 infected with vACE-NT, 72 h after administering DOX (1 μm)): 27%
